# Measurements from PubChem BioAssay (NCI).
#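 Where inhibition never reached the appropriate level, the endpoint shown equals the highest concentration tested. Otherwise, values were interpolated linearly from a five-concentration, 48-hour dose response in 96-well plates. GI50 = concentration required for 50% inhibition of growth. TGI: total growth inhibition.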
# Experiments:
# Assay in all cases: growth of human tumour cells (NCI), 48 h
# [1] = test system: OVCAR-4 ovarian
# [2] = test system: SNB-19 CNS
# [3] = test system: UACC-257 melanoma
# [4] = test system: HT29 colon
# [5] = test system: SF-295 CNS
# [6] = test system: UACC-62 melanoma
# [7] = test system: SNB-75 CNS
# [8] = test system: 786-0 renal
# [9] = test system: HS 578T breast
# [10] = test system: ACHN renal
# [11] = test system: UO-31 renal
# [12] = test system: KM12 colon
# [13] = test system: MOLT-4 leukemia
# [14] = test system: SW-620 colon
# [15] = test system: RXF 393 renal
# [16] = test system: SK-MEL-2 melanoma
# [17] = test system: SK-OV-3 ovarian
# [18] = test system: IGROV1 ovarian
# [19] = test system: MCF7 breast
# [20] = test system: PC-3 prostate
# [21] = test system: SF-268 CNS
# [22] = test system: CAKI-1 renal
# [23] = test system: NCI/ADR-RES ovarian
# [24] = test system: MALME-3M melanoma
# [25] = test system: NCI-H522 lung
# [26] = test system: HCT-15 colon
# [27] = test system: NCI-H23 lung
# [28] = test system: HOP-62 NSCLC
# [29] = test system: SR leukemia
# [30] = test system: MDA-MB-435
# [31] = test system: HCT-116 colon
# [32] = test system: A498 renal
# [33] = test system: HCC-2998 colon
# [34] = test system: DU-145 prostate
# [35] = test system: NCI-H226 lung
# [36] = test system: SK-MEL-5 melanoma
# [37] = test system: OVCAR-3 ovarian
# [38] = test system: A549 NSCLC
# [39] = test system: SK-MEL-28 melanoma
# [40] = test system: BT-549 breast
# [41] = test system: EKVX NSCLC
# [42] = test system: SF-539 CNS
# [43] = test system: NCI-H460 lung
# [44] = test system: OVCAR-5 ovarian
# [45] = test system: U251 CNS
# [46] = test system: COLO 205 colon
# [47] = test system: MDA-MB-231 breast
# [48] = test system: LOX IMVI melanoma
# [49] = test system: HOP-92 NSCLC
# [50] = test system: OVCAR-8 ovarian
# [51] = test system: HL-60(TB) leukemia
# [52] = test system: SN12C renal
# [53] = test system: K-562 leukemia
# [54] = test system: RPMI-8226 leukemia
# [55] = test system: TK-10 renal
# [56] = test system: CCRF-CEM leukemia
smiles,measurement,setting,value
CN1C(=O)N(C)C2C1NN=c1s/c(=C\c3ccccc3F)c(=O)n12 (stereo unspecified),GI50,[1],1410 nM
same,TGI,[1],> 100000 nM
same,GI50,[2],448 nM
same,TGI,[2],> 100000 nM
same,GI50,[3],> 100000 nM
same,TGI,[3],> 100000 nM
same,GI50,[4],312 nM
same,TGI,[4],> 36700 nM
same,GI50,[5],186 nM
same,TGI,[5],> 100000 nM
same,GI50,[6],371 nM
same,TGI,[6],> 100000 nM
same,GI50,[7],80.7 nM
same,TGI,[7],547 nM
same,GI50,[8],741 nM
same,TGI,[8],> 100000 nM
same,GI50,[9],287 nM
same,TGI,[9],> 100000 nM
same,GI50,[10],684 nM
same,TGI,[10],> 100000 nM
same,GI50,[11],657 nM
same,TGI,[11],> 100000 nM
same,GI50,[12],198 nM
same,TGI,[12],> 60200 nM
same,GI50,[13],520 nM
same,TGI,[13],> 100000 nM
same,GI50,[14],296 nM
same,TGI,[14],> 100000 nM
same,GI50,[15],159 nM
same,TGI,[15],491 nM
same,GI50,[16],629 nM
same,TGI,[16],> 100000 nM
same,GI50,[17],446 nM
same,TGI,[17],> 100000 nM
same,GI50,[18],633 nM
same,TGI,[18],> 100000 nM
same,GI50,[19],69 nM
same,TGI,[19],> 100000 nM
same,GI50,[20],296 nM
same,TGI,[20],> 100000 nM
same,GI50,[21],1220 nM
same,TGI,[21],> 100000 nM
same,GI50,[22],140 nM
same,TGI,[22],> 100000 nM
same,GI50,[23],229 nM
same,TGI,[23],> 100000 nM
same,GI50,[24],325 nM
same,TGI,[24],> 100000 nM
same,GI50,[25],229 nM
same,GI50,[26],145 nM
same,TGI,[26],> 100000 nM
same,GI50,[27],534 nM
same,TGI,[27],> 100000 nM
same,GI50,[28],480 nM
same,TGI,[28],> 100000 nM
same,GI50,[29],93 nM
same,TGI,[29],> 100000 nM
same,GI50,[30],38.7 nM
same,TGI,[30],184 nM
same,GI50,[31],354 nM
same,TGI,[31],> 56600 nM
same,GI50,[32],175 nM
same,TGI,[32],929 nM
same,GI50,[33],422 nM
same,TGI,[33],> 100000 nM
same,GI50,[34],325 nM
same,TGI,[34],23900 nM
same,GI50,[35],1230 nM
same,TGI,[35],> 100000 nM
same,GI50,[36],188 nM
same,TGI,[36],4110 nM
same,GI50,[37],170 nM
same,TGI,[37],680 nM
same,GI50,[38],439 nM
same,TGI,[38],> 100000 nM
same,GI50,[39],5750 nM
same,TGI,[39],> 100000 nM
same,GI50,[40],1390 nM
same,TGI,[40],> 100000 nM
same,GI50,[41],398 nM
same,TGI,[41],> 100000 nM
same,GI50,[42],217 nM
same,TGI,[42],639 nM
same,GI50,[43],351 nM
same,TGI,[43],> 100000 nM
same,GI50,[44],496 nM
same,TGI,[44],> 100000 nM
same,GI50,[45],356 nM
same,TGI,[45],> 100000 nM
same,GI50,[46],328 nM
same,TGI,[46],1430 nM
same,GI50,[47],541 nM
same,TGI,[47],> 41600 nM
same,GI50,[48],565 nM
same,TGI,[48],> 100000 nM
same,GI50,[49],8510 nM
same,TGI,[49],> 100000 nM
same,GI50,[50],516 nM
same,TGI,[50],> 100000 nM
same,GI50,[51],224 nM
same,TGI,[51],633 nM
same,GI50,[52],671 nM
same,TGI,[52],> 100000 nM
same,GI50,[53],117 nM
same,TGI,[53],> 100000 nM
same,GI50,[54],364 nM
same,TGI,[54],> 66800 nM
same,GI50,[55],> 20800 nM
same,TGI,[55],> 100000 nM
same,GI50,[56],335 nM
same,TGI,[56],> 100000 nM
